{"source": "patent US20030180952A1", "about": "“Plant regeneration” (Sugar Research & Development Corporation, priority 2000, published 2003)", "key": {"[1]": {"tested_on": "inflorescence explants of sugarcane Q152", "assay": "Regeneration from inflorescence explants", "assay_type": "cell-based", "conditions": "Table 18 (b) ˜8 mm pieces of main floral axis placed laterally", "experimental": "Table 18: Comparison of regeneration efficiency for different sugarcane explants. Explants were (a) 2-3 mm sections of main floral axis of inflorescence; (b) ˜8 mm sections of main floral axis placed laterally on the culture medium; (c) immature floral tissues dissociated from floral axis; and (d) whole 2-3 mm sections of inflorescence oriented “top down”. B4N10=4 μM BA+10 μM NAA; B4N40=4 μM BA+40 μM NAA; B4N60=4 μM BA+60 μM NAA; 2,4D14=14 μM 2,4,D. “Top down” orientation is as previously described. Shoot frequency legend: *1-2 shoots per explant; **3-10 shoots per explant; ***greater than […] shoots per explant.\nYoung bolting inflorescence “stalk” tissue enveloped in developing leaves (floral and leaf components) was harvested from above the apical meristem of Q152 or Q165 sugarcane plants. Transverse sections were made to produce 2-3 mm thin sections of the tissue.\n(§1) Murashige & Skoog (MS) nutrient formulation supplemented with 30 g/L sucrose and 7.5 g/L Difco agar were used as the basal culture medium. Basal medium was enriched with different concentrations and combinations of (i) a cytokinin: 6-benzylaminopourine (BA) or kinetin (KIN); (ii) an auxin: α-napthaleneacetic acid (NAA); and (iii) anti-oxidants: citric acid (CA), ascorbic acid (AA), or dithiothreitol (DTT); depending on the experimental objective. […]"}, "[2]": {"tested_on": "leaf whorl explants of sugarcane cultivar Q165", "assay": "Somatic embryogenesis / shoot regeneration in leaf whorl explants", "assay_type": "cell-based", "conditions": "sugarcane leaf section cultures", "experimental": "Table 19: Morphogenic response of leaf whorl explants (1.0-2.0 mm thick) of sugarcane cultivar Q165 after 8 weeks of culture on MS medium supplemented with chlorophenoxyacetic acid (CPA). Ten replicates, each with 10 explants placed in top down orientation, were maintained for each treatment. Explants were cultured under dark condition for the initial 5-6 weeks and then transferred to light (16 hr/day) for further shoot/planlet development. C=Mostly non-embroygenic callus was produced.\nTable 20: Morphogenic response of leaf whorl explants (1.0-2.0 mm thick) of sugarcane cultivar Q165 after 8 weeks of culture on MS mediun supplemented with chlorophenoxyacefic acid (CPA). Ten replicates, each with 10 explants placed in top down orientation, were maintained for each treatment. All cultures received 16 hr light every day.\nTable 21: Shoot regeneration in 1.0-2.0 mm thick leaf whorl explants of sugarcane cultivar Q165 after 8 weeks of culture on MS medium containing 6-benzyladenine (BA), α-naphthaleneacetic acid (NAA) and cholorophenoxyacetic acid (CPA). Ten replicates, each with 10 explants placed in top down orientation, were maintained for each treatment. All cultures received 16 hr light every day. […]"}, "[3]": {"tested_on": "leaf explants of sugarcane cultivar Q165", "assay": "Shoot regeneration in leaf explants on MS medium with cytokinin and auxin", "assay_type": "cell-based", "conditions": "at any given concentration of NAA; Tables 7, 8 and 10", "experimental": "(§2) Top portions (about 30 cm) of shoots were cut and all leaves except the innermost 3-4 whorls were carefully removed under aseptic conditions. TS explants measuring about 1.0-2.0 mm or 5.0-6.0 mm in thickness were prepared by serial transverse sectioning of the lowermost 3-4 cm portion (just above the apical meristem) of the leaf spindle using a sharp surgical blade under sterile conditions.\nas §1, with “objective. The pH of the medium was adjusted to 5.7 before autoclaving for 20 minutes at 120° C.” for “objective.”\nAlso, the concentrations of BA and NAA were varied in order to determine their influence upon shoot generation. […] The percentage of explants producing shoots were scored, as were the number of shoots produced per explant. […]"}, "[4]": {"tested_on": "leaf base sections of sorghum variety New Nugget", "assay": "Somatic embryogenesis and shoot production in leaf base sections", "assay_type": "cell-based, Sorghum bicolor L.", "conditions": "for regeneration with other hormone combinations: sorghum", "text": "Table 26: Effect of different levels of cholorophenoxyacetic acid (CPA) on somatic embryogenesis and shoot production in 1.0-2.0 mm thick leaf base sections of sorghum (Sorghum bicolor L.) variety New Nugget after 8 weeks of culture. Five to six replicates, each with 10 explants placed in “top down” orientation, were maintained for each treatment. All cultures received 16 hr light every day.\nTable 27: Effect of different levels of cholorophenoxyacetic acid (CPA) and 6-benzyladenine (BA) on somatic embryogenesis and shoot production in 1.0-2.0 mm thick leaf base sections of sorghum (Sorghum bicolor l L.) variety New Nugget after 8 weeks of culture. Five to six replicates, each with 10 explants placed in “top down” orientation, were maintained for each treatment. All cultures received 16 hr light every day.\nYoung developing leaf sheaths (the innermost 3-4 whorls at the shoot tip) were used as the explant. Explants were preferably 1.0-2.0 mm thick transverse sections taken from the whorls. MS nutrient medium containing 3% sucrose and 7.5 g/L Davis J3 agar was used as the basal medium for all experiments. MS-based medium with several plant growth regulators was tested as a micropropagation medium."}, "[5]": {"tested_on": "leaf explants of sugarcane cultivar 91N406", "assay": "Direct shoot regeneration in leaf explants on MS medium with BA and NAA", "assay_type": "cell-based", "conditions": "91N406 explants; BA 4 μM", "text": "Table 12: Direct shoot regeneration in leaf explants (1-2 mm thick) of sugarcane cultivar 90N876 cultured on MS medium supplemented with 6-benzyladenine (BA) and α-napthaleneacetic acid (NAA) for 8 weeks. Thirty replicates, each with 10 explants cultured in top down orientation, were maintained for each treatment. Table 13: Direct shoot regeneration in leaf explants (1-2 mm thick) of sugarcane cultivar 91N406 cultured on MS medium supplemented with 6-benzyladenie (BA) and α-napthaleneacetic acid (NAA) for 8 weeks. Five replicates, each with 10 explants cultured in top down orientation were maintained for each treatment.\nas §2\nMurashige & Skoog (MS) nutrient formulation supplemented with 30 g/L sucrose and 7.5 g/L Difco agar were used as the basal culture medium. […]"}}}
{"smiles": "O=C(O)COc1ccc(Cl)cc1Cl", "note": "[2,4-D14]", "values": [{"measurement": "Number of explants showing reg'n", "setting": "[1]", "value": 0}, {"measurement": "Percentage of explants regenerating", "setting": "[1]", "value": 0, "unit": "%"}]}
{"smiles": "Nc1cc(Cl)cc(C(=O)O)c1Cl", "note": "[AD, 3 amino-2,5-dichlorobenzoic acid]", "values": [{"measurement": "morphological abnormalities in the regenerated plants", "setting": "[2]", "value": "developed albinos occasionally"}]}
{"smiles": "c1coc(CNc2ncnc3[nH]cnc23)c1", "note": "[KIN, kinetin]", "values": [{"measurement": "optimal concentration of cytokinin for shoot regeneration", "setting": "[3]", "value": 4, "unit": "µM"}, {"measurement": "effect on shoot regeneration", "setting": "[4]; added after the initial embryo formation", "value": "enhanced"}]}
{"smiles": "O=C(O)Cc1cccc2ccccc12", "note": "[NAA, α-napthaleneacetic acid]", "values": [{"measurement": "optimal concentration of NAA for shoot regeneration", "setting": "[5]", "value": 40, "unit": "µM"}]}
{"smiles": "COc1c(Cl)ccc(Cl)c1C(=O)O", "note": "[dicamba]", "values": [{"measurement": "regeneration with other hormone combinations", "setting": "[4]", "value": "unsucessful"}, {"measurement": "callus growth", "setting": "[4]; sorghum cultures containing dicamba", "value": "some callus growth was seen"}]}
{"smiles": "Nc1c(Cl)c(Cl)nc(C(=O)O)c1Cl", "note": "[picloram]", "values": [{"measurement": "regeneration with other hormone combinations", "setting": "[4]", "value": "unsucessful"}]}
{"smiles": "O=C(Nc1ccccc1)Nc1cnns1", "note": "[thidiazuron]", "values": [{"measurement": "regeneration with other hormone combinations", "setting": "[4]", "value": "unsucessful"}]}
